Calls of active or inactive are those of the source.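 How the source made its calls: active means IC50 against the VIM-2 bacterial beta-lactamase enzyme at or below a set limit; inactive means IC50 above that set limit.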

The target of the experiment is VIM-2 metallo-beta-lactamase (Pseudomonas aeruginosa) (UniProt Q932Y6). Briefly: concentration-dependent VIM-2 enzyme inhibition – biochemical, epi-absorbance readout, selective inhibitors, dose response (AID 1919). The settings on record: purified VIM-2, nitrocefin hydrolysis, epi-absorbance fluorescence.
Take `Cc1nn(CCc2n[nH]c(=S)n2-c2cccc(Cl)c2)c(C)c1[N+](=O)[O-]`: the IC50 result was “inactive”.

In the case of `O=C(CSc1nnc(NC(=O)c2ccccc2)s1)NCc1ccco1`, the IC50 was > 59.6 µM (inactive).

With `Cc1cccc(C(=O)Nc2nnc(SCC(=O)NCc3ccco3)s2)c1`, the IC50 is > 59.6 µM (inactive).

For the compound `O=Cc1c(NCc2ccc(Cl)cc2)c2ccccc2[nH]c1=O`, the IC50 entry was “inactive”.

Take `CC(C)(C)CC(=O)Nc1nnc(SCC(=O)NCc2cccs2)s1`: the IC50 result is “inactive”.

Regarding `CCCCn1c(-c2nn(C)cc2Cl)n[nH]c1=S`, the IC50 was 4.2 µM.

In general, IC50 refers to the concentration that inhibits the measured activity by half.

Source of the values: PubChem BioAssay AID1919 (The Scripps Research Institute Molecular Screening Center, 2009).
